This is an account of results in patent US8207133B1, “Peptides that down regulate the activity of plasma membrane transporters including sodium-D-glucose cotransporter SGLT1” (Julius-Maximilians-Universitat Wurzburg, priority 2005, dated 2012).

Where two headings read alike, the source gives them in different places. Residues, ends and D or L forms follow the SMILES beside them.

Experiment [1] relates to RS1 at the TGN in LLC-PK1 cells. The experiment in a line: Immunostaining of RS1 in subconfluent LLC-PK1 cells after brefeldin A. The experiment is classed as cell-based. Conditions: 2 μg/ml brefeldin A, 1 min or 5 min. On the procedure:
For immunostaining, LLC-PK1 cells were grown on coverslips to about 50% confluence. The cells were washed twice with washing buffer (5 mM 3-(N-morpholino)propanesulfonic acid-NaOH, pH 7.4, 100 mM NaCl, 3 mM KCl, 2 mM CaCl2, and 1 mM MgCl2), fixed for 12 min with 4% (w/v) paraformaldehyde diluted in washing buffer, and washed twice again. Free aldehyde groups were quenched by 10 min incubation with washing buffer containing 40 mM glycine. For immunoreactions, washed cells were permeabilized by a 10-min incubation with washing buffer containing 0.25% (w/v) TritonX-114, and incubated over night at 4° C. with primary antibodies diluted in washing buffer. The dilutions of primary antibodies were as follows: rabbit-anti-RS1-Ab 1:50 (Valentin (2000), Biochim. Biophys. Acta, 1468, 367-380); QIS30 directed against SGLT1 1:400 (Kipp (2003), Am. J. Physiol., 285, C737-C749), sheep-anti-TGN46 1:125 (from Diagnostic International, Schriesheim, Germany). After incubation with primary antibodies, cells were washed 3 times with washing buffer and incubated for 1 h at room temperature with fluorochrome linked secondary antibodies (goat antibody against rabbit IgG linked to AlexaFluor 488 Molecular Probes, Leiden, Netherlands, and donkey anti-sheep IgG coupled to Cy2 from Dianova, Hamburg, Germany). […]

Experiment [2] concerns hSGLT1. The experiment in a line: hSGLT1 expressed [14C]AMG uptake in Xenopus oocytes after injection of hRS1 protein or hRS1 peptides. Format: cell-based, human.
The subject of experiment [3] is sodium dependent amino acid transporters. Conditions: 60 min, pH 6.5, 3 mM QCP, 10 mM amino acids.
Procedure: Walls of small intestinal mucosa from mice are inserted into an Ussing chamber and transepitehial currents are measured that are induced by addition of 10 mM of various amino acids to the mucosal side. The intestinal walls are incubated for 60 min with buffer at pH 6.5 containing 0.1 mM D-glucose or with buffer at pH 6.5 containing 0.1 mM D-glucose plus 3 mM of QCP. After washing, amino acid induced transepithelial currents without and with preteatment with QCP are compared.
The test system of the next experiment is hOCT2. As to conditions: intracellular AMG 0.1 mM, <0.01 mM or 10 mM.
For the next experiment, the target named is T1, hPEPT1 (Homo sapiens, UniProt P46059).
T1 construct: expressed in transfected cells; host or cells: Xenopus laevis oocytes (cRNA injection, 30 ng per oocyte)
T1 sequence (P46059 1-708): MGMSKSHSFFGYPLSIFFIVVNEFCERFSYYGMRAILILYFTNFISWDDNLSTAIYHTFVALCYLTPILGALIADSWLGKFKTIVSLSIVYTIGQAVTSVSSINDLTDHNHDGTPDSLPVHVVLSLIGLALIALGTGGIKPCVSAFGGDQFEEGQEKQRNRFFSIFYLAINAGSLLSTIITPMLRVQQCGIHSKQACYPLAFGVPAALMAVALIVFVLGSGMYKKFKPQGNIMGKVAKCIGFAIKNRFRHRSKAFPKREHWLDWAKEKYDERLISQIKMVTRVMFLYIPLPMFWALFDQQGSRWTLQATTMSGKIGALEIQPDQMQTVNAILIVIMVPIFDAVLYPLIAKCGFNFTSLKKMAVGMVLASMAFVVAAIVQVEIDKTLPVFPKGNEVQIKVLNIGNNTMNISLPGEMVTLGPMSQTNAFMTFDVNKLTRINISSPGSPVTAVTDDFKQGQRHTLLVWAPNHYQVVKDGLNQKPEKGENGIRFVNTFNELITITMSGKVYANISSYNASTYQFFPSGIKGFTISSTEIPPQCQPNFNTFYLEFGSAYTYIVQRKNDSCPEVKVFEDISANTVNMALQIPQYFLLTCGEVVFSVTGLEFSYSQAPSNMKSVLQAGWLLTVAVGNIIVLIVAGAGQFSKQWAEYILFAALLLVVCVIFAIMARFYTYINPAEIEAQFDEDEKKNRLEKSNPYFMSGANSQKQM
The experiment in a line: Electrogenic peptide transport by hPEPT1 in oocytes, two-electrode voltage clamp. Format: cell-based. On the procedure:
The oocytes were incubated for three days at 16° C. in ORi buffer (in mM: 5 HEPES-Tris, pH 7.4, 100 NaCl, 3 KCl, 2 CaCl2, and 1 MgCl2). […] The oocytes were superfused with Ori buffer titrated to pH 6.5, the membrane potential of the oocytes was clamped to −40 mV, and inward current induced by superfusion with Ori buffer (pH 6.5) containing 5 mM of a control dipeptide or 5 mM of the tested tripeptide was measured.
For orientation: Two-electrode voltage clamp is typically applied to oocytes expressing channels or transporters.

For experiment [4] the following is noted: 10 mM QCP in drinking water pH 6.0, 2 months, standard chow or sugar low diet.
Source text: The body weight development with and without peptide treatment is compared over 2 months.
The subject of experiment [5] is hSGLT1. The experiment in a line: [14C]AMG uptake after incubating oocytes expressing hSGLT1 with or without hPEPT1 with tripeptide in the medium. Format: cell-based, human. Conditions: pH 6.5. How it is done:
In a different experimental setup, oocytes were injected with SGLT1 cRNA (2.5 ng per oocyte) or with hSGLT1 cRNA (2.5 ng per oocyte) plus hPEPT1 cRNA (10 ng per oocyte) and the oocytes were incubated 3 days for expression. Thereafter the oocytes were incubated 30 min with Ori buffer adjusted to pH 6.5 or with Ori buffer adjusted to pH 6.5 containing 3 mM of the tested tripeptide. Thereafter oocytes were washed with Ori buffer (pH 7.4) and uptake of [^14C]AMG was measured.
It was furthermore elucidated whether in human small intestine the expression of hSGLT1 can be inhibited by oral ingestion of QCP. […] Thereafter the oocytes were washed with neutral Ori buffer and the hSGLT1 expressed uptake of 50 μM [^14C]AMG was measured (FIG. 7). QCP had no effect in oocytes in which hSGLT1 but not hPEPT1 was expressed (data not shown). However, in oocytes expressing hSGLT1 plus hPEPT1, [^14C]AMG uptake was inhibited by about 50% when the oocytes had been incubated with QCP (FIG. 7). Incubation of oocytes expressing hSGLT1 plus hPEPT1 with PCQ had no effect on the expressed uptake of [^14C]AMG.

The test system of another experiment is SGLT1. As to conditions: 60 min pre-incubation, pH 6.5, 3 mM QCP, 0.1 mM D-glucose.

Procedure for hOCT2: Corresponding measurements were performed in the presence of intracellular AMG concentrations of 0.1 mM, <0.01 mM or 10 mM.

`C[C@H]1CCC/C=C/[C@@H]2C[C@H](O)C[C@H]2[C@H](O)/C=C/C(=O)O1` [brefeldin A]: the “immunoreactivity of RS1 at the perinuclear compartment” value in experiment [1] is given as “disappeared within several minutes”.
As to “SVQPCQENQ [reverse nonapeptide of […], reference compound]”, the “inhibition of uptake of 50 μM [14C]AMG” value in the experiment on hSGLT1 [2] (50 nl/oocyte containing 1.5 mM peptide injected, 30 min) is “No inhibition”.
In the case of Glutamine-Cysteine-Proline [QCP], in the experiment with hSGLT1 [2], the “AMG uptake inhibition in the absence of BTXB” value is listed as “inhibited”, the “AMG uptake inhibition in the presence of BTXB” value is recorded as “no significant inhibition”, the “inhibition of glucose uptake expressed by hSGLT1” value is reported as “about 50%” and the “inhibition of hSGLT1 expressed AMG uptake after stimulation of protein kinase C” value was “not changed”. Besides, in the experiment on hSGLT1 [2], the “inhibition of hSGLT1 expressed AMG uptake with coexpressed dominant negative mutant of dynamin I” value is “not changed”, the “inhibition of hSGLT1 expressed uptake of AMG after 3 h” value came to 60%, the “inhibition of hSGLT1 expressed uptake of AMG after 5 h” value was “about 40%” and the “inhibition of hSGLT1 expressed uptake of AMG after 10 h” value was 20-30%. In addition, in the experiment on hSGLT1 [2], the “inhibitory effect on expression of hSGLT1 when the exocytotic pathway was blocked” value is “could be prevented” and the “intracellular concentration of QCP at which 35-40% inhibition was obtained” value is given as “below 5 nM”. The “inhibition of hSGLT1 expressed AMG uptake” value in the experiment on hSGLT1 [2] (0.05 µM) is given as 35-40%. Besides, the “transepithelial flux of amino acids” value in experiment [3] is “inhibits transepithelial flux of amino acids”. Further, the “hOCT2 expressed [14C]TEA uptake after injection” value with hOCT2 is recorded as “appears not to be inhibited”. For the same compound, the “inward currents in control oocytes not injected with hPEPT1 cRNA” value at hPEPT1 was “no inward currents”. For the same compound, the “inward currents in oocytes expressing hPEPT1” value on hPEPT1 (pH 6.5) was “significant inward currents”. In addition, the body weight result in experiment [4] is on record as “body weight is reduced”. In the experiment on hSGLT1 [5], the “effect on AMG uptake in oocytes expressing hSGLT1 but not hPEPT1” value is “no effect” and the “inhibition of [14C]AMG uptake in oocytes expressing hSGLT1 plus hPEPT1” value is “about 50%”. The transepithelial glucose flux result in the experiment with SGLT1 is “inhibits transepithelial glucose flux”.
With `NCC(=O)N[C@@H](CCC(N)=O)C(=O)O` [GC, glycylglutamine, reference compound] (H-Gly-Gln-OH), the “inward currents in oocytes expressing hPEPT1” value at hPEPT1 (5 mM peptide, pH 6.5, clamped to -40 mV) is “significant inward currents”. The “inward currents in control oocytes not injected with hPEPT1 cRNA” value on hPEPT1 (data not shown) is listed as “no inward currents”.
Turning to “SDSDRIEP [Serine-Aspartic acid-Serine-Aspartic acid-Arginine-Isoleucine-Glutamic acid-Proline, octapeptide of hRS1, amino acid positions 43 to 50]”, in the experiment with hSGLT1 [2], the “inhibition of glucose uptake expressed by hSGLT1” value is “about 50%”, the “inhibition of hSGLT1 expressed AMG uptake after stimulation of protein kinase C” value is listed as “not changed”, the “inhibition of hSGLT1 expressed AMG uptake with coexpressed dominant negative mutant of dynamin I” value is given as “not changed” and the “inhibitory effect on expression of hSGLT1 when the exocytotic pathway was blocked” value is recorded as “could be prevented”.
